Measurements taken from ChEMBL document CHEMBL4145674, “Discovery of 3-Benzyl-1-( trans-4-((5-cyanopyridin-2-yl)amino)cyclohexyl)-1-arylurea Derivatives as Novel and Selective Cyclin-Dependent Kinase 12 (CDK12) Inhibitors” (J Med Chem, 2018).

Legend:
CDK9/cyclin T1 = CDK9/cyclin T1 (Homo sapiens, UniProt P50750); type: protein-complex assay
Description: Inhibition of GST-tagged human CDK9/CycT1 (04 to 110 residues) assessed as reduction in ATP-dependent ULight-4E-BP1 (Thr37/Thr46) substrate peptide phosphorylation pre-incubated for 60 mins by LANCE Ultra assay

CDK12/Cyclin K = CDK12/Cyclin K (Homo sapiens, UniProt Q9NYV4); test: Inhibition of N-terminal FLAG-tagged human full-length CDK12 (1 to 1490 residues)/N-terminal His-tagged CycK (1 to 580 residues) expressed in Sf9 cells assessed as reduction in ATP-dependent ULight-4E-BP1 (Thr37/Thr46) substrate peptide phosphorylation pre-incubated for 60 mins by LANCE Ultra assay
Chain of CDK12/Cyclin K (O75909 whole entry, the tested form may be a part): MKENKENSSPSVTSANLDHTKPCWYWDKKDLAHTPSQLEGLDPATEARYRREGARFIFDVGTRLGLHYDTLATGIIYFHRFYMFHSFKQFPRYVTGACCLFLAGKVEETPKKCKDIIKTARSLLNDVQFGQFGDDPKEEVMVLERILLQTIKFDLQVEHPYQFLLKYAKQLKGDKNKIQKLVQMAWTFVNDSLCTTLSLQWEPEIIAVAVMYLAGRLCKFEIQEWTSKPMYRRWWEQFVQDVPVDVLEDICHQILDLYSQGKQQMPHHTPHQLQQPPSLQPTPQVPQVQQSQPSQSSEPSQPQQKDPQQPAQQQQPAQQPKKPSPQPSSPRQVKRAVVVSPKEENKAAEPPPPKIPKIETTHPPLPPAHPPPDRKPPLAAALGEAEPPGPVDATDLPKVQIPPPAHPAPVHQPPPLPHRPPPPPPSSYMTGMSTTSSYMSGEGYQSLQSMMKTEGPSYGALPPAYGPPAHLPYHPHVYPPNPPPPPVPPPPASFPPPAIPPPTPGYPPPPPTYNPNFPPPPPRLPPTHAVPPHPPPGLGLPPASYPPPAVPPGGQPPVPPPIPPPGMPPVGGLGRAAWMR
Chain of CDK12/Cyclin K (Q9NYV4 whole entry, the tested form may be a part): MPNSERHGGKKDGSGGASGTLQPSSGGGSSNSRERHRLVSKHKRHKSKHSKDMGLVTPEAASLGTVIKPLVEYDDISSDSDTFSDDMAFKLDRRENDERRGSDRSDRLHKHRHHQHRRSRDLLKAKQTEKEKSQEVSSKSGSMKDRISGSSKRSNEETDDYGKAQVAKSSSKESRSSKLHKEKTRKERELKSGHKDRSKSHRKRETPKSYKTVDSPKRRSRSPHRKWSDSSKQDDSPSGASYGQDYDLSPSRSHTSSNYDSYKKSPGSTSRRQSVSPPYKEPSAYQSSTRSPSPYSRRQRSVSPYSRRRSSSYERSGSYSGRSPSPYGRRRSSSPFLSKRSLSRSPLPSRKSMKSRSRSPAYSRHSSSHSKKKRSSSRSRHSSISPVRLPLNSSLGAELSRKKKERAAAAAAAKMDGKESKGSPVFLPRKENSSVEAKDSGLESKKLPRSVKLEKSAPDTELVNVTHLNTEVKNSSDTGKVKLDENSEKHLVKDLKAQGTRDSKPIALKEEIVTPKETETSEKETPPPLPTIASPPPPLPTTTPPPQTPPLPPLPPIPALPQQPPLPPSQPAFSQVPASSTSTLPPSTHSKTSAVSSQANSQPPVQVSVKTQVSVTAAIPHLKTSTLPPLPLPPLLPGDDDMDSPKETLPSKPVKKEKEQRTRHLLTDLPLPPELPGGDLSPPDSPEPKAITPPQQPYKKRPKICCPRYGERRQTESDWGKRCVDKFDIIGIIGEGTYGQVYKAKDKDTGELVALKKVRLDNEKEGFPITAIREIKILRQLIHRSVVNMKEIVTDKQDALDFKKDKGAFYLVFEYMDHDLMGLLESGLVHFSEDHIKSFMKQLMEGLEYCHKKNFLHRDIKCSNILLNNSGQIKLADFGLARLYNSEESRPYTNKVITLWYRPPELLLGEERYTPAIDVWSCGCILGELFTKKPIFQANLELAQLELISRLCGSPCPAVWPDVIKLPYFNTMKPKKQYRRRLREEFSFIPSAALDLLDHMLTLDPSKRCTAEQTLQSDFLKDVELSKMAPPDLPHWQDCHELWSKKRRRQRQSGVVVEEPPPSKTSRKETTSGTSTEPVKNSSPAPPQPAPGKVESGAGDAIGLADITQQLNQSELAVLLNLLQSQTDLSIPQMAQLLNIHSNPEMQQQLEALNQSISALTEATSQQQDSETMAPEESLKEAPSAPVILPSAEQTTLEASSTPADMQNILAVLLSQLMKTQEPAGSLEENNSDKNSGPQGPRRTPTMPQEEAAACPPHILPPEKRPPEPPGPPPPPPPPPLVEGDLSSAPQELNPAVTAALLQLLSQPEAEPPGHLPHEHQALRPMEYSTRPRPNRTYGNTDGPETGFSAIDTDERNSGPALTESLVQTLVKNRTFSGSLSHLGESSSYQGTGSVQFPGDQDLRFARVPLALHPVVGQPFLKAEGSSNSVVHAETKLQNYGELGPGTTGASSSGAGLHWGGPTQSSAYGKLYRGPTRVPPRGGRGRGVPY

CDK8/Cyclin C = CDK8/Cyclin C (Homo sapiens, UniProt P49336); test: Inhibition of GST-tagged human CDK8/CycC (04 to 109 residues) using kinase tracer 236 probe incubated for 60 mins by TR-FRET assay; type: protein-complex assay
Chain of CDK8/Cyclin C (P49336 whole entry, the tested form may be a part): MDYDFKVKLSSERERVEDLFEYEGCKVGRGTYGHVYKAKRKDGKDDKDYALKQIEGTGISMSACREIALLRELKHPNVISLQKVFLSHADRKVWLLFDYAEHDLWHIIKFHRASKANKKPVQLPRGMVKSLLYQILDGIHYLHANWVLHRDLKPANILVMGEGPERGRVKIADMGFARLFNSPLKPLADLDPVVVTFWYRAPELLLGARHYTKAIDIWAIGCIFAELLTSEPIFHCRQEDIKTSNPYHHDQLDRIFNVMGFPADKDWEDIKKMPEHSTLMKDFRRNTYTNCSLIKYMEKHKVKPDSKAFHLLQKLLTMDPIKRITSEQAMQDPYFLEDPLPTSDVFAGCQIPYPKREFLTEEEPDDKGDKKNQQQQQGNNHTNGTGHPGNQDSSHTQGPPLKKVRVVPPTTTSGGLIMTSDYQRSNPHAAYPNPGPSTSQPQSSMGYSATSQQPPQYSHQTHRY
Chain of CDK8/Cyclin C (P24863 whole entry, further chain, the tested form may be a part): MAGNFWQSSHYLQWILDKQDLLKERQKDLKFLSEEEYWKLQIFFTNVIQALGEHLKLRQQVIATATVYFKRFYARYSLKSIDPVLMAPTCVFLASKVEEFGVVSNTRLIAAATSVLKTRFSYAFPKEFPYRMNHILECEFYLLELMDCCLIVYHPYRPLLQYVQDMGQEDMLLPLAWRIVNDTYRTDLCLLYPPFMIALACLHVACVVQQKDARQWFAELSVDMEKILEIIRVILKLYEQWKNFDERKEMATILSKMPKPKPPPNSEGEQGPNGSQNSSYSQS

CDK7/Cyclin H/MNAT1 = CDK7/Cyclin H/MNAT1 (Homo sapiens, UniProt P50613)
Chain of CDK7/Cyclin H/MNAT1 (P51946 whole entry, the tested form may be a part): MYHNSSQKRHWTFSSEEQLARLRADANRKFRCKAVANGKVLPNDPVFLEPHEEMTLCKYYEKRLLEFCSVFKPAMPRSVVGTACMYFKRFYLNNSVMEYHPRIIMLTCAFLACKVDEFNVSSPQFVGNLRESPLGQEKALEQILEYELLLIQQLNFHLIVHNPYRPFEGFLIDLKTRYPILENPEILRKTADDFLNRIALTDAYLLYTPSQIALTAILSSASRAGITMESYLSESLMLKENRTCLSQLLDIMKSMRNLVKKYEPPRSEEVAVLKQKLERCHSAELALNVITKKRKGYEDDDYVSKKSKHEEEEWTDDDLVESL
Chain of CDK7/Cyclin H/MNAT1 (P50613 whole entry, the tested form may be a part): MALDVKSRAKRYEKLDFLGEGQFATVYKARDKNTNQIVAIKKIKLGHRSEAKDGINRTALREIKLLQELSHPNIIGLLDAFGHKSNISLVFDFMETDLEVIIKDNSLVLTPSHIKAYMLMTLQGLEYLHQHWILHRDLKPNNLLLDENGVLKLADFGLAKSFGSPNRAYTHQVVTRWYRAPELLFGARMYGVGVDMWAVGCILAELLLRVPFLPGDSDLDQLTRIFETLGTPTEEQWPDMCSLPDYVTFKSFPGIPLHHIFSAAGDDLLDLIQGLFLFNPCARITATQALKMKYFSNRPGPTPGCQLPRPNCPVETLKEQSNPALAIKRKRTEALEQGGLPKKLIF
Chain of CDK7/Cyclin H/MNAT1 (P51948 whole entry, further chain, the tested form may be a part): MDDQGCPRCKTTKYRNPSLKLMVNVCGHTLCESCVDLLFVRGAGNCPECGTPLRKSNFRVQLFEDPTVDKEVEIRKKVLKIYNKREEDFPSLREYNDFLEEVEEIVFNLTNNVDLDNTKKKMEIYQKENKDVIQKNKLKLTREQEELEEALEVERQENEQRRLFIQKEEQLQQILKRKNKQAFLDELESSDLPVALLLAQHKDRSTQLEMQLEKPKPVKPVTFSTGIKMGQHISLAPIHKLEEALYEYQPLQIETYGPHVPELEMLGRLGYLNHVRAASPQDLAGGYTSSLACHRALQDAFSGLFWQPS
Description: Inhibition of GST-tagged human GST-tagged CDK7/CycH/MAT1 (04 to 108 residues) using kinase tracer 236 probe incubated for 60 mins by TR-FRET assay

[1] = target: Cyclin-dependent kinase 13/Cyclin-K (Homo sapiens, UniProt Q14004); test: Inhibition of N-terminal FLAG-tagged human full-length CDK13 (1 to 1512 residues)/N-terminal His-tagged CycK (1 to 580 residues) expressed in Sf9 cells assessed as reduction in ATP-dependent ULight-4E-BP1 (Thr37/Thr46) substrate peptide phosphorylation pre-incubated for 60 mins by LANCE Ultra assay
[2] = target: Cyclin-dependent kinase 12 (Homo sapiens, UniProt Q9NYV4); test: Inhibition of CDK12 in human SK-BR-3 cells assessed as reduction in RNA polymerase 2 Ser2 phosphorylation incubated for 4 hrs by; type: cell-based
Chain of Cyclin-dependent kinase 12 (Q9NYV4 whole entry): as the sequence (Q9NYV4 whole entry, the tested form may be a part) above

Chain of CDK9/cyclin T1 (O60563 whole entry, the tested form may be a part): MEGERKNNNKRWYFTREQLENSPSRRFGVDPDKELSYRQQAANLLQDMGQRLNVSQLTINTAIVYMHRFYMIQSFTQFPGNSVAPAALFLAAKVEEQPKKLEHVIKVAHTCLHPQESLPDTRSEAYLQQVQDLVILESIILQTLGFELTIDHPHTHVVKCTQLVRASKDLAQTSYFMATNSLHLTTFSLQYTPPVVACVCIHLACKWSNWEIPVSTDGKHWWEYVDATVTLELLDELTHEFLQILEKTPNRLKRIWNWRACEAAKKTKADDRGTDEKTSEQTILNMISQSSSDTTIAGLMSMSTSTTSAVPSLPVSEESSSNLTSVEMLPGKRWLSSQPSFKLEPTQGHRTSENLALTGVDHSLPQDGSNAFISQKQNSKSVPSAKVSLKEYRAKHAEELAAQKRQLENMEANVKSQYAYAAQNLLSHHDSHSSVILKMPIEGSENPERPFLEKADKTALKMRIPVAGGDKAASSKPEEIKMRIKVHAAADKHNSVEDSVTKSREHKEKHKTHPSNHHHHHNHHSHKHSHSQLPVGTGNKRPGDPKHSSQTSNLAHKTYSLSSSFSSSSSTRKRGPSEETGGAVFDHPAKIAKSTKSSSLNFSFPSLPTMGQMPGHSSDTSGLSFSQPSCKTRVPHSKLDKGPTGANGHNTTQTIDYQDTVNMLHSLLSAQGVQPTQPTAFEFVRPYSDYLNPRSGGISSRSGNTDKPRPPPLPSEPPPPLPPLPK
Chain of CDK9/cyclin T1 (P50750 whole entry, the tested form may be a part): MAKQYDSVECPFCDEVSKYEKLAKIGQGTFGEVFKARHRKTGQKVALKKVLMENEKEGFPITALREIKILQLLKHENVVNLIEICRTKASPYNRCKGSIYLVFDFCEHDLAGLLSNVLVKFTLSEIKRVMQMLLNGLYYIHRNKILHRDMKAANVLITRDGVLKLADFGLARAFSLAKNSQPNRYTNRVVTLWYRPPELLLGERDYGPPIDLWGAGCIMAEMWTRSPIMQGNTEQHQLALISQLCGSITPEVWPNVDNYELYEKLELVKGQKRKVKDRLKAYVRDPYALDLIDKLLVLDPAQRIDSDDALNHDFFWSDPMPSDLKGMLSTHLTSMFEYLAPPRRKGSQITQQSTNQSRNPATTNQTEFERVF

Row | Structure (SMILES) | IC50 (CDK9/cyclin T1) | IC50 (CDK12/Cyclin K) | IC50 (CDK8/Cyclin C) | IC50 (CDK7/Cyclin H/MNAT1) | IC50 [1] | IC50 [2]
1 | Cn1cc(-c2ccc(N(C(=O)NCc3ccccc3)[C@H]3CC[C@@H](Nc4ccc(C#N)cn4)CC3)cc2)cn1 | > 30000 nM | > 30000 nM | > 10000 nM | > 10000 nM | > 10000 nM | 
2 | CC(C)C(=O)OC[C@@H]1O[C@@H](n2cnc(N)c3c(C(N)=O)c(Br)nc2-3)[C@@H](O)[C@@H]1O | 220 nM | 110 nM |  | 1200 nM |  | 259 nM
